Measured values reported in PubChem BioAssay AID588396 (Broad Institute, 2011).
Several values for one entry are separate records, joined by “and”; a condition that tells them apart may be missing. Equal values may be shown once. Results filed as inconclusive are left out. Activity calls are given as the source filed them.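 Rule for the calls: active = loss of yeast growth signal with half-maximal concentration no more than ten times the top tested dose, in every run; inconclusive = runs disagree, or a weak flat curve or poor fit; inactive = inactive in every run.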

Test system: not listed separately
Assay: reduced ATP viability signal of PfHsp90 yeast – S. cerevisiae, BacTiter-Glo luminescence, dry powder samples, antimalarial PfHsp90 inhibitor project, dose response (AID 588396)
Details: S. cerevisiae expressing PfHsp90, BacTiter-Glo ATP luminescence, 48 h; at 26 µM (top of the series)

| SMILES | activity change, negative = inhibition |
| --- | --- |
| Nc1c2ccccc2nc2ccccc12 (tested in a mixture with another compound) | 51.8% (inactive) and 38.4% (inactive) |
| COc1ccc2c(c1)[nH]c1c(C)nccc12 | 217% (inactive) |
| O=C1C(Cl)=C(NCCc2ccccc2)C(=O)c2ccccc21 | 1.42% (inactive) |
| Cc1ccc(N2C(=O)C3C4C=CC(CNC(=S)Nc5cccc(Cl)c5)(O4)C3C2=O)cc1 (stereo not given) | -41.4% (inactive) |

Test system: S. cerevisiae expressing PfHsp90, BacTiter-Glo ATP luminescence, 48 h
Assay: as above
Details: not given

| SMILES | AC50 [µM] |
| --- | --- |
| O=S(=O)(NC1CCCCCC1)c1ccc(Br)s1 | 1.34 |
| O=C(O)/C=C/c1cn(-c2ccccc2)nc1-c1cc2ccccc2o1 | 9.7 |
| CCOc1cc(S(=O)(=O)NC2CCCCCC2)ccc1F | 7.34 |
| O=S(=O)(NC1CC2CCC1C2)c1ccc(Cl)cc1 (stereo not given) | 3.25 |
| O=C1C(Cl)=C(Oc2ccccc2)C(=O)c2ccccc21 | 0.974 |
| O=S(=O)(/C=C/c1ccccc1)NC1CCCCCCC1 | 6.52 |
| CCN(CC)c1ccc(/C=C2/SC(=O)N(C(C)C)C2=O)o1 | 12.2 |
| Cc1ccc(N2C(=O)C3C4C=CC(CNC(=S)Nc5ccc(F)cc5)(O4)C3C2=O)cc1 (stereo not given) | 26.3 |
| O=C(CSCC(=O)N1CCCCC1)Nc1nc(-c2ccc(Cl)s2)cs1 | 14.5 |
| COc1ccc2c(c1)C=C(C(=O)NCc1ccc(Cl)cc1)CO2 | 8.85 |
| Cc1ccc(O)c(NC(=S)NC(=O)c2ccc(-c3ccc(Cl)cc3)o2)c1 | 6.37 |
